“Also recorded” adds a separate entry of the source.
Tests used:
CCND2 promoter = experiment: CCND2 promoter-luciferase transactivation assay in NIH3T3 cells with or without c-maf; type: cell-based, mouse; conditions: for identified as putative inhibitor of CCND2 transactivation (screen hit): ~5 μM, 16 hours, hit = 50% or more reduction in luciferase relative to cell viability
Description: Using this assay, Lopac (n=1280), Prestwick (n=1120), and Spectrum (n=2000) libraries of drugs and natural compounds were screened. In a parallel MTS assay, the effect of each compound on 3T3 viability was determined, allowing exclusion of compounds that caused secondary suppression of CCND2 due to non-specific cytotoxicity. […] These included monensin, patulin, β-lapachone, camptothecin, dihydrogambogic acid, gentian violet, thapsigargin, brefeldin A, pristimerin, and kinetin riboside.
Full-length c-maf cDNA was subcloned into an IRES-GFP MIEV retroviral vector and introduced into NIH3T3 cells by infection. Stable clones expressing GFP and c-maf were selected by flow cytometry and immunoblotting, respectively. The promoter of human cyclin D2 (−894 to −4; Brooks et al., J. Biol. Chem., 271, 9090-9 (1996)), containing c-maf responsive element sequence (MARE), was cloned from DNA from HeLa cells and inserted into the pGLbasic firefly luciferase vector (Promega, Madison, Wis.) immediately upstream of the luciferase gene. This construct was co-transfected with pcDNA3 (containing a neomycin resistance gene) into both NIH3T3 wild type cells and NIH3T3 cells stably over-expressing c-maf-IRES-GFP. Cells stably expressing c-maf, GFP, and luciferase were selected.
NIH3T3 cells stably expressing c-maf and the CCND2 promoter driving luciferase (13,000 cells per well) were plated in 96-well plates by a Biomek FX liquid handler (Beckman, Fullerton, Calif.). After the cells had adhered, they were treated with aliquots of molecules from LOPAC (Sigma, St. Louis, Mo.), Prestwick (Prestwick Chemical Inc, Illkirch, France) or Spectrum (Microsource Discovery Systems, Gaylordsville, Conn.) libraries of off-patent drugs and chemicals at a final concentration of ˜5 μM and <0.1% DMSO. Cells were incubated with compounds at 37° C. for 16 hours.
Luciferase assay. Luciferase activity was assessed according to the manufacturer's instructions (Promega, Madison, Wis.). Briefly, the cell culture medium was removed using an EMBLA plate washer (Molecular Devices, X) and Glo Lysis buffer (Promega) was added by robot. After a 10-minute incubation, an equal volume of Bright-Glo Luciferase substrate (Promega) was added, and luminescence signal was detected with a 96-well Luminoskan luminescence plate reader (Thermo Labsystem, Waltham, Mass.) using a 5 second integration.
Studies of kinetin riboside using 3T3-D2-luc cells. To examine CCND2 suppression induced by kinetin riboside, the reporter cells were exposed to kinetin riboside in combination with other drugs (all purchased from Sigma, St. Loius, Mo.) that influence CCND2 transcription or inhibit nucleoside transport or phosphorylation. NIH3T3 cells expressing the CCND2 promoter driving luciferase were incubated with kinetin riboside or vehicle control +/− forskolin, 4-(3-butoxy-4-methoxybenzyl)imidazolidin-2-one (BMBI), cantharadin, S-(4-Nitrobenzyl)-6-thioinosine (NBTI), or A-134974, as specified at 5 μM concentration for 16 hours at 37° C. […] Forskolin is a cell-permeable diterpenoid that activates adenylate cyclase resulting in increased cAMP concentration. BMBI (Sigma B8279) is an inhibitor of cAMP phosphodiesterase that also causes accumulation of cAMP. Cantharadin (C7632) is an inhibitor of protein phosphatase 2A and, from the library screen, mediates induction of CCND2. NBTI (Sigma N2255) is a potent adenosine uptake inhibitor, and A-134974 (Sigma A2846) is a selective inhibitor of adenosine kinase.
In an optimized automated assay, NIH3T3 cells over-expressing c-maf and the human cyclin D2 promoter driving luc were plated in 96-well plates by robot and following adhesion were treated for 16 hours with compounds at a final concentration of ˜5 μM and <0.1% DMSO. As a control, cells were treated with buffer alone. […] Thus, each compound from the library was tested in at least two assays—luciferase for CCND2 activity and MTS for viability. The coefficient of variance (CV) of the assay was <10%.

CD138+ myeloma cells = experiment: Unsorted myeloma patient bone marrow, flow cytometry: CD138+ myeloma cells; type: cell-based, human; conditions: unsorted myeloma patient bone marrow samples
Description: (§1) Flow cytometry. HMCL were treated as indicated and then washed in cold phosphate-buffered saline (PBS) and resuspended in buffer containing AnnexinV-FITC and propidium iodide (BD Biosciences, San Jose, Calif.) for 15 minutes at room temperature. Cells (10^5) were subsequently diluted and analyzed immediately by flow cytometry (FACScan, BD Biosciences, San Jose, Calif.) using CellQuest software. Patient bone marrow specimens were prepared and analyzed in a similar fashion using AnnexinV-FITC and anti-CD138-PE (BD Biosciences, San Jose, Calif.).
(§2) As mouse embryos that lack any D-cyclins eventually die from hematopoietic failure (Kozar et al., Cell, 118, 477-91 (2004)), the bone marrow might be predicted to be one of the most sensitive non-malignant tissue to be affected by drugs targeting cyclin D expression. Unsorted bone marrow samples from myeloma patients were treated with kinetin riboside to assess the relative cytotoxicity of this drug on malignant versus non-malignant marrow cells. Bone marrow samples were first processed to remove non-nucleated red cells and were then treated for 48 hours with kinetin riboside (5 μM).

[1] = system: human myeloma cell lines (HMCL); experiment: HMCL viability / cytotoxicity (MTT, MTS); type: cell-based; conditions: human
Description: Subsequent validation studies using selected compounds in human myeloma cell lines (HMCL) confirmed successful suppression of both cyclin D2 and D1 polypeptides. Each of these compounds was then shown to be cytotoxic to a genetically diverse and standardized panel of 14 HMCL in MTT assays: monensin (10-760 nM), camptothecin (5-700 nM), dihydrogambogic acid (250-800 nM), pristimerin (150-500 nM), and kinetin riboside (2.5-20 μM). Cell cycle analysis confirmed induction of G0/G1 phase arrest for most compounds, consistent with cyclin D inhibition.
Viability assay. The effects of screened compounds on cell viability was assessed by 3-(4,5-dimethyl[…])-5-(3-carboxymethoxyphenyl)-2-(4-sulfophenyl)-2-H-tetrazolium (MTS) assay according to the manufacture's instructions (Progmega, Madison, Wis.). MTS reagent (20 μL/well in 96 well plates) was added to cells, and these were then incubated at 37° C. for 4 hours. Absorbance at 490 nm was determined using a 96-well plate reader.

[2] = system: CD138− hematopoietic cells; experiment: Unsorted myeloma patient bone marrow, flow cytometry: CD138- non-malignant cells; type: cell-based; conditions: for toxicity for normal / non-malignant patient hematopoietic cells: patient bone marrow
Description: as §1, §2

HMCL = experiment: Cell cycle profiling of HMCL by flow cytometry; type: cell-based, human; conditions: Example 1, HMCL
Description: Cell cycle profiling. HMCL were incubated with drug or vehicle as indicated, washed and resuspended in 1 mL PBS. Ice cold ethanol was added dropwise to 75% with regular mixing, and suspensions were incubated at −20° C. for 1 hour. Cells were washed again with PBS and resuspended in 0.1 mL RNAse A (100 μg/mL) at room temperature for 5-10 minutes. Propidium iodide (200 μL×100 μg/mL) was added immediately prior to analysis by flow cytometry. Cellular aggregates were excluded using CellQuest Doublet Discriminator Module, and cell cycle profile was determined using ModFit LT Mac 3.1 SP2 (Verity Software House, TopSham, Me.).

## CC(C)=CCCC1(C)C=Cc2c(O)c3c(c(CC=C(C)C)c2O1)OC12C(=CC4CC1C(C)(C)OC2(C/C=C(/C)C(=O)O)C4O)C3=O (centres unmarked) [dihydrogambogic acid]
CCND2 promoter; NIH3T3 CCND2-luc with or without c-maf
  suppression of CCND2 promoter in absence or presence of c-maf: c-maf independent specific suppression of the CCND2 promoter
CCND2 promoter
  identified as putative inhibitor of CCND2 transactivation (screen hit): putative CCND2 inhibitors; also recorded: putative suppressors of CCND2
CD138+ myeloma cells
  activity against CD138+ myeloma cells compared with non malignant hematopoietic cells: selective activity
[1]
  cytotoxic concentration across panel of 14 HMCL: 250 to 800 nM

## CN(C)c1ccc(C(=C2C=CC(=[N+](C)C)C=C2)c2ccc(N(C)C)cc2)cc1 [gentian violet]
CCND2 promoter
  identified as putative inhibitor of CCND2 transactivation (screen hit): putative CCND2 inhibitors; also recorded: putative suppressors of CCND2

## N[C@@H](Cc1ccc(N(CCCl)CCCl)cc1)C(=O)O [melphalan, reference compound]
[2]; 48 hours, kinetin riboside 5 μM
  effect on non-malignant CD138− marrow cells: killed proportionately more healthy CD138− marrow cells than malignant myeloma cells

## CC[C@@]1([C@@H]2O[C@@H]([C@H]3O[C@@](O)(CO)[C@H](C)C[C@@H]3C)C[C@@H]2C)CC[C@H]([C@]2(C)CC[C@]3(C[C@H](O)[C@@H](C)[C@@H]([C@@H](C)[C@@H](OC)[C@H](C)C(=O)O)O3)O2)O1 [monensin, reference compound]
CCND2 promoter
  identified as putative inhibitor of CCND2 transactivation (screen hit): putative CCND2 inhibitors; also recorded: putative suppressors of CCND2
[2]
  toxicity for normal / non-malignant patient hematopoietic cells: almost equal toxicity for normal cells
[2]; listed as Monensin
  toxicity for normal / non-malignant patient hematopoietic cells: excessive non-specific toxicity
[1]
  cytotoxic concentration across panel of 14 HMCL: 10 to 760 nM

## N=C1C=CC(=C(c2ccc(N)cc2)c2ccc(N)cc2)C=C1 [pararosaniline pamoate]
CCND2 promoter
  identified as putative inhibitor of CCND2 transactivation (screen hit): putative suppressors of CCND2

## C/C=C(/C)C(=O)O[C@H]1C(C)=C2[C@H]([C@@H]1OC(=O)CCCCCCC)[C@@](C)(OC(C)=O)C[C@H](OC(=O)CCC)[C@@]1(O)[C@H]2OC(=O)[C@@]1(C)O [thapsigargin]
CCND2 promoter
  identified as putative inhibitor of CCND2 transactivation (screen hit): putative CCND2 inhibitors

## CC1(C)CCC2=C(O1)c1ccccc1C(=O)C2=O [β-lapachone, reference compound]
CCND2 promoter
  identified as putative inhibitor of CCND2 transactivation (screen hit): putative CCND2 inhibitors
HMCL
  cell cycle arrest phase: S-phase arrest

Source: patent US8822440B2, “Inhibiting cyclin D polypeptides” (Mayo Foundation for Medical Education and Research, priority 2006, dated 2014)
